Results published in paper PMC10745422, “Absorption, Distribution, Metabolism, and Excretion of [^14C]BS1801, a Selenium-Containing Drug Candidate, in Rats” (Molecules, 2023).

Key:
albumin = test system: albumin; set-up: method as in PMID 17363345, PMID 7945407; conditions: cited from earlier work
[1] = Tissue distribution of radioactivity after a single oral dose of [^14C]BS1801; format: in vivo, Long–Evans (LE, Rattus norvegicus) rats; conditions: total radioactivity
Procedure: (§1) BS1801 and [^14C]BS1801 were prepared in 0.5% sodium carboxymethyl cellulose solution at a target concentration of 10 mg/mL (10 μCi/mL). The radioactivity of [^14C]BS1801 was measured using a liquid scintillation counter (LSC) (Hidex, Turku, Finland) before and after administration, and a single dose of 10 mL/kg was administered orally.
Twenty-four LE rats (12 of each sex) were used for tissue distribution studies. Three male and three female rats were sacrificed through abdominal aortic bleeding at 2, 10, 48, and 96 h after administration. Approximately 1/5 of the blood was stored frozen at −20 °C, and the remaining blood was centrifuged (3500× g, 5 min, 4 °C) to obtain plasma. The brain, heart, lung, liver, stomach wall, spleen, kidney, muscle, pigmented fat, ovary, womb, testis, bladder wall, pancreas, small intestine wall, large intestine wall, eye, pigmented skin, thymus, spinal cord, and marrow were also collected. The tissues were washed with saline, dried, and stored at −20 °C until testing.
(§2) Samples of urine (100 μL), bile (30 μL), and plasma (100 μL from the tissue distribution study) were weighed and added to 15 mL scintillation solution. Among them, urine and bile samples were duplicated, and plasma samples were in singlicate. The radioactivity was measured directly via LSC.
(§3) Approximately three times the weight of methanol/water (50:50, v:v) was added to each fecal sample and homogenized with a homogenizer (SKGZ, Shanghai Biheng, Shanghai, China). Approximately 0.2~0.3 g of the fecal homogenate was weighed in a combustion boat, and dried overnight. Blood samples (100 μL) and tissue samples (approximately 0.1 g) were weighed into burning boats. After the samples were completely dried, they were combusted using a Biological Sample Oxidizer (OTCS-11/1, Shanghai Yixing, Shanghai, China). The ^14CO2 generated was captured with 15 mL alkaline scintillation solution; then, the radioactivity was measured using LSC.

[2] = Metabolite radio-profiling and identification in pooled plasma, urine, feces and bile (UHPLC-β-RAM/UV/QE MS); format: in vivo, Sprague–Dawley (SD, Rattus norvegicus) rats
Procedure: Three SD rats of each sex were used to obtain plasma samples. […] All samples were stored at −20 °C for analysis.
Then, 3 mL of methanol/water (50:50, v:v) was slowly added to the pooled plasma (1 mL), followed by vortexing for 1 min and sonication for 10 min twice. Then, the upper extract and the lower precipitate were separated by centrifugation (5000 rpm, 10 min). The supernatant was transferred to another new centrifuge tube. Then, 1 mL of water was added to the precipitate, vortexed for 1 min, and sonicated for 10 min. Then, 2 mL of methanol/acetonitrile (50:50, v:v) was added to the mixture, two vortexes were performed for 1 min, and the mixture was ultrasonicated for 10 min, followed by centrifugation (5000 rpm, 10 min). The two-times supernatant extracts were combined and dried under a nitrogen stream and finally redissolved with acetonitrile/water (20:80, v:v). The recoveries of extraction and reconstitution processes were measured via LSC.
The pooled urine was vortexed and centrifuged (5000 rpm, 10 min). After centrifugation, the supernatant was dried under a nitrogen stream and then redissolved in acetonitrile/water (20:80, v:v).
The pooled fecal homogenate (1 g) was extracted by using the same method as for the plasma. The supernatant was then evaporated under a nitrogen stream and redissolved in 300 μL acetonitrile/water (20:80, v:v).
An ACQUITY UPLC BEH Pheny column (100 × 2.1 mm, 1.7 μm) with a Phenomenex KrudKatcher Ultra HPLC In-Line Filter guard column (2 µm, Depth Filter × 0.004 in ID) was used to perform metabolite radio-profiling and characterization on the Vanquish UHPLC system, which was combined with a QExactive Plus mass spectrometer (Thermo, Waltham, MA, USA) containing an electrospray ionization (ESI) source. The column temperature was 40 °C, and the flow rate was 0.45 mL/min. The mobile phases contained 5 mM ammonium acetate with 0.1% formic acid in water (A) and acetonitrile (B). […] The mass spectrometer was operated in positive (+ESI) mode with a m/z 100–1500 Da scanning range. The optimized MS parameters were as follows: sheath gas, 35 L/min; auxiliary gas, 10 L/min; capillary temperature, 320 °C; and spray voltage, 3.8 kV. Data acquisition was performed using Xcalibur 4.1 software (Thermo, Waltham, MA, USA), and data analysis was accomplished using Compound Discoverer software 3.3 SP2 (Thermo, Waltham, MA, USA).
The extracted plasma, urine, feces, and bile samples were separated via UHPLC and detected using an online/offline radioactivity detector to obtain the corresponding radioactive metabolite profiles. Due to low radioactivity of plasma, the UHPLC eluent was collected using a UHPLC fraction collector (Thermo, Waltham, MA, USA) over time (10 s/well) on Deepwell LumaPlateTM 96-well plates. After evaporation via a vacuum centrifuge concentrator, the radioactivity was determined with an offline Sense Beta detector (1 min/well, Hidex, Turku, Finland). For the urine, feces, and bile samples, the UHPLC eluent was analyzed using an online radioactivity detector β-RAM. Radioactive metabolite profiling was integrated to obtain the radio-chromatogram with Laura 6.0.5.101 software (Lablogic, Sheffield, UK). The percentage of each metabolite in urine, feces, and bile (%dose) and the ratio of metabolites in the plasma (% area under the curve, %AUC) were calculated.

[3] = Mass balance: excretion of radioactivity in urine and feces after a single oral dose of [^14C]BS1801; format: in vivo, Sprague–Dawley (SD, Rattus norvegicus) rats
Procedure: as §1
Three male and three female SD rats were housed individually in metabolic cages. Urine samples were collected from each rat at predose and 0–8, 8–24, 24–48, 48–72, 72–96, 96–120, 120–144, and 144–168 h postdose. When each urine sample was collected, the metabolic cage was flushed with a small amount of water for 0–72 h and methanol/water (50:50, v:v) for 72–168 h, and the flushing solution was added to the urine sample for the corresponding period. Fecal samples were also collected at predose and 0–24, 24–48, 48–72, 72–96, 96–120, 120–144, and 144–168 h postdose. Urine and fecal samples were weighed and recorded during each collection period. All samples were stored at −20 °C for testing.
as §2, §3

[4] = Biliary excretion of radioactivity in bile duct cannulated (BDC) rats; format: in vivo, Sprague–Dawley (SD, Rattus norvegicus) rats; conditions: BDC SD rats, single intragastric 100 mg/kg, within 72 h
Procedure: as §1
Bile duct cannulation (BDC) was performed in 3 male and 3 female SD rats before drug administration. After the operation, the wounds were wiped with iodophor for 2 days, and painkillers were administered appropriately. The state of the rats was observed daily, and the drug was administered only when no abnormality was observed within 2 days. Bile was collected before and 0–4, 4–8, 8–24, 24–48, and 48–72 h after dosing. The weights of the bile samples were recorded, and the samples were stored at −20 °C until testing.
as §2

human serum albumin = test system: human serum albumin; set-up: method as in PMID 35149420; conditions: covalent binding, unstable; cited from earlier work
[5] = 0–96 h pooled female SD rat urine
[6] = AUC0–72h pooled female SD rat plasma
[7] = AUC0–72h pooled male SD rat plasma
[8] = SD rats, single oral 100 mg/kg, 0 to 168 h

In the case of `O=c1c2ccccc2[se]n1CCn1[se]c2ccccc2c1=O` [BBSKE, 1,2-[bis(1,2-benzisoselenazolone-3 (2H)-ketone)]-ethane], the “binding rates with albumin” value (albumin) is given as “high”.

In the case of `O=c1c2ccccc2[se]n1CCCCn1[se]c2ccccc2c1=O` [BS1801], the “ratio of AUC0–96h of brain to that of plasma, rank among analyzed tissues” value ([1]; brain, LE rats) is reported as “the lowest”, the “ratio of tissue AUC0–96h to plasma AUC0–96h” value (“ratio of tissue AUC0–96h” for short) ([1]; eyes, male LE rats) is reported as 5.35 and the “average ratio of blood AUC0–96h to plasma AUC0–96h” value ([1]; female LE rats) is reported as 0.45. The “ratio of tissue AUC0–96h” value ([1]; large intestine, female LE rats) was 16.82, the “ratio of tissue AUC0–96h” value ([1]; large intestine, male LE rats) was 7.48 and the “ratio of tissue AUC0–96h” value ([1]; liver, female LE rats) was 6.59. For the same molecule, the “ratio of tissue AUC0–96h” value ([1]; liver, male LE rats) was 11.80, the “average ratio of blood AUC0–96h to plasma AUC0–96h” value ([1]; male LE rats) was 0.73 and the “ratios of other tissues AUC0–96h to plasma AUC0–96h” value ([1]; other tissues, all rats) was “lower than 5.00”. The “ratio of tissue AUC0–96h” value ([1]; stomach, male LE rats) was 10.60, the amount in urine [2, 5] was “not detected” and the amount in urine ([2]; 0–96 h pooled male SD rat urine) was “not detected”. The “share of total plasma radioactivity” value [2, 6] was “undetected”, the “share of total plasma radioactivity” value [2, 7] was “not detected” and the “detection of parent drug in bile” value ([2]; SD rat bile) was “not detected”. The “unchanged drug in rat feces” value ([2]; SD rat feces, male and female) was “more than 75.00 % of the dose”, the “recovery of radioactivity in the supernatant after protein precipitation of pooled plasma” value ([2]; female SD rats) was 91.23% and the “recovery of radioactivity in the supernatant after protein precipitation of pooled plasma” value ([2]; male SD rats) was 105.85%. For the same molecule, the amount in feces ([2]; pooled female SD rat feces (0–48 h)) was 81.89 % of the dose, the amount in feces ([2]; pooled male SD rat feces (0–48 h)) was 76.97 % of the dose and the “absorption in rats (inferred from urine and bile recovery)” value ([3]; SD rats, single oral 100 mg/kg) was “not well absorbed”. The “radioactive recovery in either urine or bile” value ([3]; SD rats, single oral 100 mg/kg) was “less than 1 % of the dose”, the “mean radioactive recovery in urine and feces” value ([3]; SD rats, single oral 100 mg/kg (100 μCi/kg), 0 to 168 h) was 93.39% and the “cumulative excretion of radioactive substances in feces” value (shortened to “cumulative excretion … in feces”) [3, 8] was 92.77 % of the dose. The “cumulative excretion of radioactive substances in urine” value [3, 8] was 0.62 % of the dose, the “mean radioactive recovery in urine and feces” value ([3]; SD rats, single oral 100 mg/kg, within 0–48 h) was 91.57% and the “cumulative excretion … in feces” value ([3]; female SD rats) was 93.22 % of the dose. For the same molecule, the “cumulative excretion … in feces” value ([3]; male SD rats) was 92.32 % of the dose, the “recovery of radioactivity in bile” value [4] was 0.58% and the “binding to human serum albumin” value (human serum albumin) was “rapidly and thoroughly”.

For `C[Se]c1ccccc1C(=O)NCCCCNC(=O)c1ccccc1[Se]C` [M2], the “share of total plasma radioactivity” value [2, 6] was 81.33 % of the total plasma radioactivity and the “share of total plasma radioactivity” value [2, 7] was 65.41 % of the total radioactivity.

In the case of `C[Se]c1ccccc1C(=O)NCCCCN` [M286], the amount in urine [2, 5] is reported as 0.20 % of the dose and the amount in bile ([2]; pooled 0–48 h male SD rat bile) is reported as “less than 0.1 % of the dose”.

For `O=c1c2ccccc2[se]n1-c1ccccc1` [ebselen, 2-phenyl-1,2-benzisoselenazol-3(2H)-one], the “binding rates with albumin” value (albumin) is given as “high”.
